Assay results taken from patent US8569489B2 (A.B. Intelpharm Limited, priority 2007, dated 2013).
Where a name gives a salt, the structure may show the parent alone. Read-outs that look alike come from different tables or passages of the source.

Assays:
mice = assay: Acute toxicity, mice perorally
[1] = system: H1-histamine receptors (bronchoconstrictor effect of histamine); assay: Anesthetized guinea pigs, antagonism of the bronchoconstrictor effect of histamine (histamine bronchospasm model); assay type: in vivo, guinea pig; conditions: for Antihistaminic activity, guinea pigs in vivo, intravenous administration, ED50 / Antihistaminic activity, guinea pigs in vivo, peroral administration, ED50: anesthetized guinea pigs; for Antihistaminic activity, guinea pigs in vivo, intravenous administration, ED50: 5 minutes before histamine; for ED50: Cavia porcellus; for Antihistaminic activity, guinea pigs in vivo, peroral administration, ED50: orally 2 hours before the study
Method: In tests on intact animals, substances were administered intravenously (5 minutes before the administration of histamine) and orally (2 hours before the beginning of the study).

[2] = system: isolated guinea pig ileum (spasmogenic effect of histamine); assay: Isolated guinea pig ileum, suppression of the spasmogenic effect of histamine; assay type: cell-based; conditions: histamine spasm, read-out: Antihistaminic activity, isolated ileum of guinea pig, IC50
Text: Study of the antihistaminic activity of the compounds on which a claim is made was done using known methodologies (Rukovodstvo po eksperimental'nomu izucheniyu novykh farmakologicheskikh veshchestv [Manual on experimental study of new pharmacological substances], Moscow, 2005, p. 489) on isolated guinea pig ileum (suppression of the spasmogenic effect of histamine) and on anesthetized guinea pigs (antagonism in relation to the bronchoconstrictor effect of histamine). In tests on intact animals, substances were administered intravenously (5 minutes before the administration of histamine) and orally (2 hours before the beginning of the study).

For `Cl.Cl.Cn1c(=O)c2c(ncn2CCCN2CCN(C(c3ccccc3)c3ccccc3)CC2)n(C)c1=O` [II-d], the “Acute toxicity, LD50” value (mice) was over 1000.0 mg/kg, the “Antihistaminic activity, guinea pigs in vivo, intravenous administration, ED50” value [1] was 0.05 mg/kg and the IC50 [2] was 12 nM.

`Cl.Cl.Cn1c(=O)n(CCCN2CCN(C(c3ccccc3)c3ccccc3)CC2)c(=O)c2c1ncn2Cc1ccccc1` [I-b] was tested, and the “Acute toxicity, LD50” value (mice) was over 800.0 mg/kg, the “Antihistaminic activity, guinea pigs in vivo, intravenous administration, ED50” value [1] was 0.3 mg/kg and the IC50 [2] was 126 nM.

`Cn1c(=O)n(CC(O)CN2CCN(C(c3ccccc3)c3ccc(Cl)cc3)CC2)c(=O)c2c1ncn2Cc1ccccc1` (stereo not shown) [I-aa, 1-[2-oxy-3-(4^1-chlorbenzhydryl-4-piperazinyl-1)propyl]-3-methyl-7-benzylxanthine] was tested, and the IC50 [2] was 536 nM.

`CCOC(=O)N1CCC(=C2c3ccc(Cl)cc3CCc3cccnc32)CC1` [Loratadine, reference compound] was tested, and the ED50 ([1]; iv, read-out: Antihistaminic activity, guinea pigs in vivo, intravenous administration, ED50) was 0.3 mg/kg, the ED50 ([1]; po, read-out: Antihistaminic activity, guinea pigs in vivo, peroral administration, ED50) was 0.9 mg/kg and the “Duration of effective blockade of H1-histamine receptors” value ([1]; histamine bronchospasm model, oral dose of 3 mg/kg) was 18 h. The IC50 ([2]; Cavia porcellus) was 472 nM.

For `Cl.Cl.Cn1c(=O)[nH]c(=O)c2c1ncn2CCCN1CCN(C(c2ccccc2)c2ccccc2)CC1` [II-e], the “Acute toxicity, LD50” value (mice) was 900.0 mg/kg, the “Antihistaminic activity, guinea pigs in vivo, intravenous administration, ED50” value [1] was 0.1 mg/kg and the IC50 [2] was 19 nM.

`Cl.Cl.Cn1c(=O)c2c(ncn2CC(O)CN2CCN(C(c3ccccc3)c3ccc(Cl)cc3)CC2)n(C)c1=O` (racemic) [II-i] was tested, and the “Acute toxicity, LD50” value (mice) was over 1000.0 mg/kg.

In the case of `Cl.Cl.Cn1c(=O)n(CCCCN2CCN(C(c3ccc(F)cc3)c3ccc(F)cc3)CC2)c(=O)c2c1ncn2Cc1ccc(F)cc1` [I-k], the “Acute toxicity, LD50” value (mice) is reported as 400.0 mg/kg and the IC50 [2] is reported as 267 nM.

For `Cl.Cl.Cn1c(=O)c2c(ncn2CC(O)CN2CCN(C(c3ccc(F)cc3)c3ccc(F)cc3)CC2)n(C)c1=O` (racemic) [II-j], the “Acute toxicity, LD50” value (mice) was over 1000.0 mg/kg.

In the case of `Cl.Cl.Cn1c(=O)n(CCCCN2CCN(C(c3ccccc3)c3ccccc3)CC2)c(=O)c2[nH]cnc21` [I-s, 1-[4-(benzhydryl-4-piperazinyl-1)butyl]-3-methylxanthine dihydrochloride], the “Acute toxicity, LD50” value (mice) is reported as over 750.0 mg/kg, the “Antihistaminic activity, guinea pigs in vivo, intravenous administration, ED50” value [1] is reported as 0.2 mg/kg and the “Antihistaminic activity, guinea pigs in vivo, peroral administration, ED50” value [1] is reported as 0.3 mg/kg. For the same molecule, the IC50 [2] was 26 nM.

For `Cl.Cl.Cn1c(=O)n(CCCCN2CCN(C(c3ccccc3)c3ccccc3)CC2)c(=O)c2c1ncn2Cc1ccccc1` [I-i], the “Acute toxicity, LD50” value (mice) was 400.0 mg/kg, the “Antihistaminic activity, guinea pigs in vivo, intravenous administration, ED50” value [1] was 0.2 mg/kg and the “Antihistaminic activity, guinea pigs in vivo, peroral administration, ED50” value [1] was 0.3 mg/kg. The IC50 [2] was 111 nM.

For `Cl.Cl.Cn1c(=O)n(CCCN2CCN(C(c3ccc(F)cc3)c3ccc(F)cc3)CC2)c(=O)c2[nH]cnc21` [I-r], the “Acute toxicity, LD50” value (mice) was over 1000.0 mg/kg, the “Antihistaminic activity, guinea pigs in vivo, peroral administration, ED50” value [1] was over 3.0 mg/kg and the IC50 [2] was 76 nM.

`Cn1c(=O)n(CCCN2CCN(C(c3ccccc3)c3ccccc3)CC2)c(=O)c2c1ncn2Cc1ccc(F)cc1` [I-e] was tested, and the IC50 [2] was 430 nM.

With `Cn1c(=O)n(CCCN2CCN(C(c3ccccc3)c3ccccc3)CC2)c(=O)c2c1ncn2CC(=O)O` [I-g] the IC50 [2] was 244 nM.

With `Cl.Cl.Cn1c(=O)n(CCN2CCN(C(c3ccc(F)cc3)c3ccc(F)cc3)CC2)c(=O)c2[nH]cnc21` [I-p] the “Antihistaminic activity, guinea pigs in vivo, intravenous administration, ED50” value [1] was 1.5 mg/kg and the IC50 [2] was 192 nM.

`Cl.Cl.Cn1c(=O)n(CCCCN2CCN(C(c3ccccc3)c3ccccc3)CC2)c(=O)c2c1ncn2Cc1ccc(F)cc1` [I-j] was tested, and the “Acute toxicity, LD50” value (mice) was 400.0 mg/kg and the IC50 [2] was 227 nM.

`Cn1c(=O)n(CC(O)CN2CCN(C(c3ccccc3)c3ccccc3)CC2)c(=O)c2c1ncn2Cc1ccccc1` (stereo not shown) [I-z, 1-[2-oxy-3-(benzhydryl-4-piperazinyl-1)-propyl]-3-methyl-7-benzylxanthine] showed an IC50 [2] of 524 nM.

`Cl.Cl.Cn1c(=O)n(CCCCN2CCN(C(c3ccc(F)cc3)c3ccc(F)cc3)CC2)c(=O)c2c1ncn2Cc1ccccc1` [I-l] was tested, and the “Acute toxicity, LD50” value (mice) was over 1000.0 mg/kg, the “Antihistaminic activity, guinea pigs in vivo, intravenous administration, ED50” value [1] was 0.5 mg/kg and the “Antihistaminic activity, guinea pigs in vivo, peroral administration, ED50” value [1] was 0.5 mg/kg. It also gave an IC50 [2] of 185 nM.

`Cn1c(=O)n(CCCN2CCN(C(c3ccc(F)cc3)c3ccc(F)cc3)CC2)c(=O)c2c1ncn2Cc1ccc(F)cc1` [I-f] was tested, and the IC50 [2] was 514 nM.

In the case of `Cl.Cl.Cn1c(=O)n(CCCN2CCN(C(c3ccc(F)cc3)c3ccc(F)cc3)CC2)c(=O)c2c1ncn2Cc1ccccc1` [I-d], the “Acute toxicity, LD50” value (mice) is reported as over 250.0 mg/kg, the “Antihistaminic activity, guinea pigs in vivo, intravenous administration, ED50” value [1] is reported as 0.6 mg/kg and the “Antihistaminic activity, guinea pigs in vivo, peroral administration, ED50” value [1] is reported as 3.0 mg/kg. The IC50 [2] was 114 nM.

In the case of `Cl.Cl.Cn1c(=O)c2c(ncn2CC(O)CN2CCN(C(c3ccccc3)c3ccccc3)CC2)n(C)c1=O` (stereo not shown) [II-h, 1,3-dimethyl-7-[2-oxy-3-(benzhydryl-4-piperazinyl-1)propyl]xanthine dihydrochloride], the “Acute toxicity, LD50” value (mice) is reported as over 1000.0 mg/kg, the “Antihistaminic activity, guinea pigs in vivo, intravenous administration, ED50” value [1] is reported as 0.1 mg/kg and the “Antihistaminic activity, guinea pigs in vivo, peroral administration, ED50” value [1] is reported as 2.0 mg/kg.

Molecule `Cn1cnc2c1c(=O)n(CC(O)CN1CCN(C(c3ccccc3)c3ccc(Cl)cc3)CC1)c(=O)n2C` (stereo not shown) [I-y, 1-[2-oxy-3-(4^1-chlorbenzhydryl-4-piperazinyl-1)propyl]-3,7-dimethylxanthine] has an IC50 [2] of 123 nM.

With `Cl.Cl.Cn1c(=O)n(CCCCCN2CCN(C(c3ccc(F)cc3)c3ccc(F)cc3)CC2)c(=O)c2c1ncn2Cc1ccccc1` [I-n] the “Acute toxicity, LD50” value (mice) was 250 mg/kg, the “Antihistaminic activity, guinea pigs in vivo, intravenous administration, ED50” value [1] was 1.2 mg/kg and the “Antihistaminic activity, guinea pigs in vivo, peroral administration, ED50” value [1] was 3.0 mg/kg. It also gave an IC50 [2] of 253 nM.

With `Cl.Cl.Cn1c(=O)n(CCCCN2CCN(C(c3ccccc3)c3ccc(Cl)cc3)CC2)c(=O)c2[nH]cnc21` (stereo not shown) [I-t] the “Acute toxicity, LD50” value (mice) was over 1000.0 mg/kg, the “Antihistaminic activity, guinea pigs in vivo, intravenous administration, ED50” value [1] was 0.3 mg/kg and the IC50 [2] was 104 nM.

`Cl.Cl.Cn1c(=O)c2c(ncn2CCCCN2CCN(C(c3ccccc3)c3ccccc3)CC2)n(C)c1=O` [II-f] was tested, and the “Acute toxicity, LD50” value (mice) was 750.0 mg/kg, the “Antihistaminic activity, guinea pigs in vivo, intravenous administration, ED50” value [1] was 0.1 mg/kg and the “Antihistaminic activity, guinea pigs in vivo, peroral administration, ED50” value [1] was under 1.5 mg/kg. For the same molecule, the IC50 [2] was 17 nM.

`Cl.Cl.Cn1c(=O)n(CCCCCN2CCN(C(c3ccccc3)c3ccccc3)CC2)c(=O)c2c1ncn2Cc1ccccc1` [I-m] was tested, and the “Acute toxicity, LD50” value (mice) was over 200.0 mg/kg and the IC50 [2] was 92 nM.

`Cl.Cl.Cn1c(=O)n(CCCN2CCN(C(c3ccccc3)c3ccc(Cl)cc3)CC2)c(=O)c2c1ncn2Cc1ccccc1` (stereo not shown) [I-c] was tested, and the “Acute toxicity, LD50” value (mice) was 400.0 mg/kg and the IC50 [2] was 133 nM.

With `Cl.Cl.Cn1cnc2c1c(=O)n(CCCCN1CCN(C(c3ccccc3)c3ccccc3)CC1)c(=O)n2C` [I-v] the “Acute toxicity, LD50” value (mice) was over 1000.0 mg/kg, the “Antihistaminic activity, guinea pigs in vivo, intravenous administration, ED50” value [1] was 0.2 mg/kg and the “Antihistaminic activity, guinea pigs in vivo, peroral administration, ED50” value [1] was over 1.5 mg/kg. For the same molecule, the IC50 [2] was 32 nM.

For `Cn1cnc2c1c(=O)n(CC(O)CN1CCN(C(c3ccccc3)c3ccccc3)CC1)c(=O)n2C` (stereo not shown) [I-x, 1-[2-oxy-3-(benzhydryl-4-piperazinyl-1)propyl]-3,7-dimethylxanthine dihydrochloride], the IC50 [2] was 1270 nM.

With `Cl.Cl.Cn1c(=O)n(CCCN2CCN(C(c3ccccc3)c3ccccc3)CC2)c(=O)c2[nH]cnc21` [I-q] the “Acute toxicity, LD50” value (mice) was over 1000.0 mg/kg, the “Antihistaminic activity, guinea pigs in vivo, intravenous administration, ED50” value [1] was 0.4 mg/kg and the IC50 [2] was 42 nM.

In the case of `Cl.Cl.Cn1c(=O)n(CCCCN2CCN(C(c3ccc(F)cc3)c3ccc(F)cc3)CC2)c(=O)c2[nH]cnc21` [I-u], the “Acute toxicity, LD50” value (mice) is reported as over 1000.0 mg/kg, the “Antihistaminic activity, guinea pigs in vivo, intravenous administration, ED50” value [1] is reported as 0.7 mg/kg and the “Antihistaminic activity, guinea pigs in vivo, peroral administration, ED50” value [1] is reported as over 3.0 mg/kg. For the same molecule, the IC50 [2] was 51 nM.
